Read-outs that look alike come from different tables or passages of the source.
Experiments:
[1] = tested on: all bacterial strains tested; experiment: Antibacterial MIC, summary over the panel; format: cell-based; details: read-out: antibacterial MIC values
Method in brief: (§1)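 The lowest inhibitory concentration is reported from a twofold dilution series, after an initial single-concentration screen with every compound at 500 μM.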

C. albicans ATCC 2876 = experiment: Antifungal MIC, CLSI M27-A3 microbroth dilution; format: cell-based, Candida albicans; details: Candida albicans, ATCC2876, C. albicans ATCC 2876, susceptible to FLC, ITC, and VOR, read-out: MIC
Description: (§2) In vitro MIC testing was performed according to the CLSI M27-A3 standard microbroth dilution methodology for the susceptibility testing of yeasts with minor modifications.

C. albicans ATCC 64124 = experiment: Antifungal MIC, CLSI M27-A3 microbroth dilution; format: cell-based, Candida albicans; details: Candida albicans, ATCC64124, C. albicans ATCC 64124, resistant to FLC, ITC, and VOR, read-out: MIC
Description: as §2

C. albicans ATCC 1003 = experiment: Antifungal MIC, CLSI M27-A3 microbroth dilution; format: cell-based, Candida albicans; details: Candida albicans, ATCC1003, read-out: MIC
Description: as §2

C. albicans ATCC 90819 = experiment: Antifungal MIC, CLSI M27-A3 microbroth dilution; format: cell-based, Candida albicans; details: Candida albicans, ATCC90819, C. albicans ATCC 90819, resistant to FLC, ITC, and VOR, read-out: MIC
Description: as §2

C. albicans ATCC 10231 = experiment: Antifungal MIC, CLSI M27-A3 microbroth dilution; format: cell-based, Candida albicans; details: Candida albicans, ATCC10231, C. albicans ATCC 10231, resistant to FLC, ITC, and VOR, read-out: MIC
Description: as §2

C. albicans ATCC 2310 = experiment: Antifungal MIC, CLSI M27-A3 microbroth dilution; format: cell-based, Candida albicans; details: Candida albicans, ATCC2310, C. albicans ATCC 2310, susceptible to FLC, ITC, and VOR, read-out: MIC
Description: as §2

[2] = Mammalian cell cytotoxicity, resazurin; format: cell-based; details: human
Description: Another important aspect to consider during the development of antimicrobial agents is their potential toxicity towards mammalian cells. Having established the potent antimicrobial activities of the bis(N-amidino)hydrazones and N-amidino-N′-aryl-bishydrazones against bacteria and fungi, the toxicity profile of these compounds was determined against two mammalian cell lines (A549 and BEAS-2B; FIGS. 4A-B). […]. Cytotoxicity assays were performed as previously described. The human lung carcinoma epithelial cells A549 and the normal human bronchial epithelial cells BEAS-2B were grown in F12-K and DMEM medium containing 10% fetal bovine serum (FBS) and 1% antibiotics, respectively. The confluent cells were trypsinized with 0.05%-trypsin-0.53 mM EDTA, centrifuged (1,200 rpm) and resuspended in fresh medium (F12-K or DMEM). The cells were seeded into 96-well microtiter plates at a density of 3,000 cells/well and were grown overnight. […] Triton X-100® (0.5%, v/v) gave complete loss of cell viability and was used as the positive control. The percent cell survival was calculated as: (test value/control value)×100, where control value represents cells+resazurin−drug, and test value represents cells+resazurin+drug.

[3] = tested on: C. albicans strains (panel of seven); experiment: Antifungal MIC, summary over the panel; format: cell-based, Candida albicans; details: against all fungal strains tested
Method in brief: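 Broth microdilution per CLSI M27-A3 (minor modifications); visual read; MIC = lowest conc. with complete inhibition vs growth control.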

[4] = tested on: L. monocytogenes ATCC 19115; experiment: Antibacterial MIC, double-dilution method; format: cell-based; details: Listeria monocytogenes, ATCC19115, strain B, Gram-positive, read-out: MIC
Method in brief: as §1

P. aeruginosa ATCC 27853 = experiment: Antibacterial MIC, double-dilution method; format: cell-based; details: Pseudomonas aeruginosa, ATCC27853, strain I, Gram-negative, read-out: MIC
Method in brief: as §1

E. coli MC1061 = experiment: Antibacterial MIC, double-dilution method; format: cell-based; details: Escherichia coli, strain G, Gram-negative, read-out: MIC
Method in brief: as §1

M. smegmatis MC2-155 = experiment: Antibacterial MIC, double-dilution method; format: cell-based; details: Mycolicibacterium smegmatis, MC2155, strain K, mycobacterial, read-out: MIC
Method in brief: as §1

VRE = experiment: Antibacterial MIC, double-dilution method; format: cell-based; details: Enterococcus, strain D, Gram-positive, read-out: MIC
Method in brief: as §1

S. enterica ATCC 14028 = experiment: Antibacterial MIC, double-dilution method; format: cell-based; details: Salmonella enterica, ATCC14028, strain J, Gram-negative, read-out: MIC
Method in brief: as §1

A. baumannii ATCC 19606 = experiment: Antibacterial MIC, double-dilution method; format: cell-based; details: Acinetobacter baumannii, ATCC19606, strain E, Gram-negative, read-out: MIC
Method in brief: as §1

B. subtilis 168 = experiment: Antibacterial MIC, double-dilution method; format: cell-based; details: Bacillus subtilis, strain A, Gram-positive
Method in brief: as §1

K. pneumoniae ATCC 27736 = experiment: Antibacterial MIC, double-dilution method; format: cell-based; details: Klebsiella pneumoniae, ATCC27736, strain H, Gram-negative, read-out: MIC
Method in brief: as §1

E. cloacae ATCC 13047 = experiment: Antibacterial MIC, double-dilution method; format: cell-based; details: Enterobacter cloacae, ATCC13047, strain F, Gram-negative, read-out: MIC
Method in brief: as §1

MRSA = experiment: Antibacterial MIC, double-dilution method; format: cell-based; details: Staphylococcus aureus, strain C, Gram-positive, read-out: MIC
Method in brief: as §1

Cl.Cl.N=C(N)N/N=C/c1ccc(-c2cccc(/C=N/NC(=N)N)c2)cc1 [Compound 3B, (2E,2′E)-2,2′-([1,1′-Biphenyl]-3,4′-diylbis(methanylylidene))bis(hydrazine-1-carboximidamide) dihydrochloride]
MIC [1]: 0.4 to 3.3 µg/mL | MIC (C. albicans ATCC 2876; converted from μg/mL): 9.9 µM | MIC (C. albicans ATCC 2876): 3.9 µg/mL | MIC (C. albicans ATCC 64124; converted from μg/mL): 9.9 µM | MIC (C. albicans ATCC 64124): 3.9 µg/mL | MIC (C. albicans ATCC 1003; C. albicans ATCC 1003, converted from μg/mL): 9.9 µM | MIC (C. albicans ATCC 1003): 3.9 µg/mL | MIC (C. albicans ATCC 90819; converted from μg/mL): 9.9 µM | MIC (C. albicans ATCC 90819): 3.9 µg/mL | MIC (C. albicans ATCC 10231; converted from μg/mL): 9.9 µM | MIC (C. albicans ATCC 10231): 3.9 µg/mL | MIC (C. albicans ATCC 2310; converted from μg/mL): 9.9 µM | MIC (C. albicans ATCC 2310): 3.9 µg/mL | IC50 at 24 h ([2]; A549 lung carcinoma epithelial cells, A549, 24 h): 7.8 to 15.6 µg/mL | IC50 at 24 h ([2]; BEAS-2B normal bronchial epithelial cells): 7.8 to 15.6 µg/mL | antifungal activity in words [3]: excellent antifungal activities | MIC ([4]; converted from μM): 0.4 µg/mL | MIC ([4]; range 0.5 to 500 μM): 1 µM | MIC (P. aeruginosa ATCC 27853; converted from μM): > 198 µg/mL | MIC (P. aeruginosa ATCC 27853; range 0.5 to 500 μM): > 500 µM | MIC (E. coli MC1061; converted from μM): > 198 µg/mL | MIC (E. coli MC1061; range 0.5 to 500 μM): > 500 µM | MIC (M. smegmatis MC2-155; converted from μM): 0.4 µg/mL | MIC (M. smegmatis MC2-155; range 0.5 to 500 μM): 1 µM | MIC (VRE; converted from μM): 1.5 µg/mL | MIC (VRE; range 0.5 to 500 μM): 3.9 µM | MIC (S. enterica ATCC 14028; converted from μM): > 198 µg/mL | MIC (S. enterica ATCC 14028; range 0.5 to 500 μM): > 500 µM | MIC (A. baumannii ATCC 19606; converted from μM): > 198 µg/mL | MIC (A. baumannii ATCC 19606; range 0.5 to 500 μM): > 500 µM | MIC (B. subtilis 168; converted from μM): > 198 µg/mL | MIC (B. subtilis 168; range 0.5 to 500 μM): > 500 µM | MIC (K. pneumoniae ATCC 27736; converted from μM): > 198 µg/mL | MIC (K. pneumoniae ATCC 27736; range 0.5 to 500 μM): > 500 µM | MIC (E. cloacae ATCC 13047; converted from μM): > 198 µg/mL | MIC (E. cloacae ATCC 13047; range 0.5 to 500 μM): > 500 µM | MIC (MRSA; converted from μM): 1.5 µg/mL | MIC (MRSA; range 0.5 to 500 μM): 3.9 µM
